In one assay the target is Rv0036c (Mycobacterium tuberculosis, UniProt P9WM91).
Another assay deals with Rv0831c (Mycobacterium tuberculosis, UniProt O53842).
For another assay, the target named is Rv0282 (Mycobacterium tuberculosis, UniProt P9WPI3). Particulars: 20 uM probe, lysate in PBS, 37 °C, 1 h; covalent.
The target of the next assay is Rv0941c (Mycobacterium tuberculosis, UniProt P71568). Particulars: 20 uM probe, lysate in PBS, 37 °C, 1 h; covalent.

Chain of Rv0036c (P9WM91 whole entry): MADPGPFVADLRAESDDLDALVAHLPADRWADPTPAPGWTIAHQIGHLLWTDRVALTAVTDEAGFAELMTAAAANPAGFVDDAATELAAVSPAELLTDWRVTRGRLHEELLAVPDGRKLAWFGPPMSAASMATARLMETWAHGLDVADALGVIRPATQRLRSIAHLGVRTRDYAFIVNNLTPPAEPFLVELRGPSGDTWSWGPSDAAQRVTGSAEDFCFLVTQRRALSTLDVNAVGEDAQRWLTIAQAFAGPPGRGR
Chain of Rv0282 (P9WPI3 whole entry, looked up): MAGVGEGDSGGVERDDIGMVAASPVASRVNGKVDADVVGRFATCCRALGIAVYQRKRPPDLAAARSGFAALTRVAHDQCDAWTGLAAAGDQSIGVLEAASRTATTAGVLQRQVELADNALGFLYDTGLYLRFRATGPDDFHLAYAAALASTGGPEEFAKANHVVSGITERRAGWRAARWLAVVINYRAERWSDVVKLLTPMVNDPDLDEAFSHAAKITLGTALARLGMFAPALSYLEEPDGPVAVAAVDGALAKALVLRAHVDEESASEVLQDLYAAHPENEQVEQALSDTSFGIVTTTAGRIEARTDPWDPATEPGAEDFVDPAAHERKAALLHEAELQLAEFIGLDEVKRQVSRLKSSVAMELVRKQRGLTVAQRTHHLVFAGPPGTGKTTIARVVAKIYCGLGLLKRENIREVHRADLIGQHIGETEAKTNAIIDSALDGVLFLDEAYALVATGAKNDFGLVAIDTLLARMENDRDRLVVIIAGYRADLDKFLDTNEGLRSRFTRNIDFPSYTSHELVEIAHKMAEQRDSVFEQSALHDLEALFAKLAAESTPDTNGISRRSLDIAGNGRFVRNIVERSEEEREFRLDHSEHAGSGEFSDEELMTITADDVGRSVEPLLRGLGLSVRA

Consider `Nc1ncnc2c1ncn2[C@@H]1O[C@H](COP(=O)(O)OP(=O)(O)OP(=O)(O)O)[C@@H](O)[C@H]1O` [ATP], for which the “competition with ATP-ABP labelling, gel fluorescence” value is “ATP and ATPγS competed with probe binding” at Rv0036c; “ATP and ATPγS competed with probe binding” on Rv0831c.

With `Nc1ncnc2c1ncn2[C@@H]1O[C@H](COP(=O)(O)OP(=O)(O)OP(O)(O)=S)[C@@H](O)[C@H]1O` [ATPγS], the “competition with ATP-ABP labelling, gel fluorescence” value on Rv0036c is “ATP and ATPγS competed with probe binding”; on Rv0831c, “ATP and ATPγS competed with probe binding”.

On to ATP-ABP, for which the “fold enrichment over negative control” value on Rv0282 turned out to be 4 fold. Also, the “fold enrichment over control” value at Rv0941c turned out to be 15 fold.

The record behind these values is article PMC3558932 (Chemistry & biology, 2013).
